The subject of test [1] is OCI-LY10 human diffuse large B lymphoma cells. As to the kind of experiment: OCI-LY10 cell proliferation (Cell Titer Glo). The note with it: 72 hours. The class given is cell-based. Here is the method: (§1) The tumor cell lines OCI-LY10 and TMD-8 were used to detect the effect of the compound of the disclosure on inhibiting tumor cell proliferation in vitro.
OCI-LY10 human diffuse large B lymphoma cells, from Nanjing Cobioer Biotechnology Co., Ltd
(§2) The compound was diluted with DMSO to a final concentration of 10 mM. The compound was freshly prepared and ready for use.
(§3) a) Logarithmic growth period cells were collected, counted, resuspended with complete culture medium, the cell concentration was adjusted to an appropriate concentration (determined according to the results of cell density optimization test), inoculated on 96-well plates, and 100 μL of cell suspension was added to each well. Cells were incubated in an incubator with 37° C., 100% relative humidity and 5% CO2 for 24 hours.
(§4) b) The compound to be tested was diluted to 50 μM with culture medium and then gradient diluted for 8 times. Cells were added with 25 μL/well. The final concentrations of the compound were from […], 3-fold gradient dilution, with a total of 9 concentration points.
(§5) c) Cells were incubated in an incubator with 37° C., 100% relative humidity and 5% CO2 for 72 hours;
(§6) d) 60 μL of CTG test reagent was added to the culture medium.
(§7) e) Shaked fully and reacted in the dark for 10 min. Luminescence was measured on ENVISION and the inhibition rate was calculated.
(§8) Cell growth inhibition rate %=[(RLUv−RLUs)/(RLUv−RLUb)]×100%

The target in another test is T1, human IRAK4 (Homo sapiens, UniProt Q9NWZ3).
T1 construct: purchased Reaction Biology Corp
T1 sequence (Q9NWZ3 1-460): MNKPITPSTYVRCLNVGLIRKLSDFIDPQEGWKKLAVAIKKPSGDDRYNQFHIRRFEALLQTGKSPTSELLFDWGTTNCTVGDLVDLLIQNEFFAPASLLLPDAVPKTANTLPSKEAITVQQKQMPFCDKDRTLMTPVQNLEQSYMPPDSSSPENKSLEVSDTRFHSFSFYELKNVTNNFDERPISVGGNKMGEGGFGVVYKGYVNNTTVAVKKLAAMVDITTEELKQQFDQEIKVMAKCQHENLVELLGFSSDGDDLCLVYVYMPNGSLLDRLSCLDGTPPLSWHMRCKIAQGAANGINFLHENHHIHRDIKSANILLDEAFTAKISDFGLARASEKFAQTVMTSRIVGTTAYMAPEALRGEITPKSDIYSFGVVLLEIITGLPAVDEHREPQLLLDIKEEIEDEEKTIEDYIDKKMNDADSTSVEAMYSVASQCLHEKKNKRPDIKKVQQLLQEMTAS
The test is described as follows: In vitro IRAK4 kinase activity, 33P isotope-labeled kinase assay. The format is biochemical. Here is the method:
The IC50 values were determined using ^33P isotope-labeled kinase activity assay (Reaction Biology Corp) to evaluate the inhibitory ability of the tested compounds on human IRAK4.
(§9) Buffer conditions: 20 mM Hepes (pH 7.5), 10 mM MgCl2, 1 mM EGTA, 0.02% Brij35, 0.02 mg/mL BSA, 0.1 mM Na3VO4, 2 mM DTT, 1% DMSO.
Test procedure: At room temperature, the tested compound was dissolved in DMSO and a 10 mM solution was prepared for use. The substrate was dissolved in a newly prepared buffer solution, and the tested IRAK4 kinase was added thereto and mixed evenly. The DMSO solution dissolved with the tested compound was added to the above mixed evenly reaction solution using acoustic technique (Echo 550). After incubation for 15 minutes, ^33P-ATP was added to initiate the reaction. The reaction was carried out at room temperature for 120 minutes, and the reaction mixture was dropped on P81 ion exchange filter paper (Whatman #3698-915). The filter paper was washed repeatedly with 0.75% phosphoric acid solution, and the radioactivity of phosphorylated substrate residues on the filter paper was determined. The kinase activity data were expressed by comparing the kinase activity of the group containing the tested compound with the kinase activity of the blank group (only containing DMSO), and the IC50 value was obtained by curve fitting by Prism4 software (GraphPad), the experimental results were shown in Table 2.

Test [2] deals with TNF-α production in THP-1 cells. As to the kind of experiment: TNF-α ELISA in LPS-stimulated THP-1 cells. The format is cell-based. The note with it: Homo sapiens, TNF-α in supernatant, 150 ng/mL LPS, 18 hours. The protocol: THP-1 human acute single cell leukemia cells were purchased from ATCC (Cat #TIB-202) and cultured at 37° C. in 5% CO2 incubator. The composition of medium was RPMI1640 (Gibco, Cat #22400-105), and the supplementary compositions were 10% FBS (Gibco, Cat #10091148); 1% PenStrep (Gibco, Cat #15140); 0.05 mM β-mercaptoethanol (Sigma, Cat #M6250).
TNF-α Elisa kit was used to detect the content of TNF-α in cell culture supernatant samples. TNF-α was produced by stimulating THP-1 cells with 150 ng/mL LPS (Sigma, Cat #L6529).
THP-1 cells cultured normally at logarithmic growth period were seeded in a 96-well plate (Corning #3599) at a certain concentration (1*10^5/100 μL) and then put into a cell incubator for incubation. After two hours, 16.7 μL of different concentrations of the compound to be tested (8*final concentration) were added and incubated in an incubator. After one hour, 16.7 μL of 1200 ng/mL LPS was added and incubated in an incubator. After 18 hours, the culture supernatant samples were collected by centrifugation, and the content of TNF-α could be detected by TNF-α Elisa kit. Finally, OD signals (OD450-OD570) were read on envision board reader.
The OD450-OD570 signal value was converted into a percentage inhibition rate.
Inhibition rate %=(ZPE−sample)/(ZPE−HPE)*100.
“HPE” referred to the OD450-OD570 signal value of the control well without LPS stimulated cells, and “ZPE” referred to the OD450-OD570 signal value of the control well with LPS stimulated cells. The IC50 value of the compound was calculated by XLFit in the excel add-in.
Y=Bottom+(Top−Bottom)/(1+(IC50/X)^HillSlope). Equation: […]
(In general: An ELISA detects its analyte on a solid surface through an enzyme-linked reagent.)

A further test addresses T2, human BTK (Homo sapiens, UniProt Q06187).
T2 construct: purchased Reaction Biology Corp
As to the kind of experiment: In vitro BTK kinase activity, 33P isotope-labeled kinase assay. The class given is biochemical. The protocol: The IC50 values were determined using ^33P isotope-labeled kinase activity assay (Reaction Biology Corp) to evaluate the inhibitory ability of the tested compounds on human BTK.
as §9
Test procedure: At room temperature, the tested compound was dissolved in DMSO and a 10 mM solution was prepared for use. The substrate was dissolved in a newly prepared buffer solution, and the BTK kinase was added thereto and mixed evenly. The compound dissolved in DMSO was added to the kinase reaction mixture through Echo 550 (Acoustic technology; Nanoliter range). After incubation for 20 minutes at room temperature, ^33P-ATP was added to initiate the reaction. The reaction was carried out at room temperature for 2 hours, and the radioactivity of the reaction solution drop was detected by filtration-binding method with P81 ion exchange filter paper. The kinase activity data were expressed by comparing the kinase activity of the group containing the tested compound with the kinase activity of the blank group (only containing DMSO), and the IC50 value was obtained by curve fitting by Prism4 software (GraphPad), the experimental results were shown in Table 3.

The subject of test [3] is TMD-8 human diffuse large B lymphoma cells. The test is described as follows: TMD-8 cell proliferation (Cell Titer Glo). The format is cell-based. To be noted: TMD8, 72 hours. The protocol:
as §1
TMD-8 human diffuse large B lymphoma cells, from Nanjing Cobioer Biotechnology Co., Ltd
as §2, §3, §4, §5, §6, §7, §8

In another test the test system is OCI-LY3 cell line. As to the kind of experiment: OCI-LY3 cell proliferation (CTG). The class given is cell-based. The note with it: Homo sapiens, 72 hours. Here is the method:
The tumor cell line OCI-LY3 was used to detect the effect of the compound of the disclosure on inhibiting tumor cell proliferation in vitro.
The tumor cell line used in this experiment was provided by Nanjing Cobioer Biotechnology Co., Ltd. See Table 6 below for specific information.
The OCI-LY3 cell line was cultured in the corresponding medium at 37° C. and 5% CO2, and the logarithmic growth period cells were used for experimental planking. The cells were collected and centrifuged at 800 rpm for 5 minutes, and the culture medium was re-suspended and spread in a 96-well plate. After being cultured overnight in 37° C., 5% CO2 incubator, drugs with different concentration gradients (10 μL of prepared diluent of test compound was added) were added, and incubated in 37° C., 5% CO2 incubator for 72 hours. The cell culture plate was incubated with CTG reagent at room temperature in the dark for 30 minutes and return to room temperature. CTG solution was added into the biosafety cabinet in the dark 100 μL/well, and was shaken and mixed evenly on plate shaker in the dark for 2 minutes, and incubated at room temperature in the dark for 10 minutes. The luminous value was read and recorded with Perkin Elmer Envision instrument.
The luminous value of the blank control group was subtracted from the luminous value measured at each drug concentration, the ratio of this value to DMSO group was taken as the cell inhibition rate (%). GraphPad software was used, the logarithm of drug concentration (log drug concentration) versus inhibition rate was plotted, and the IC50 value and 95% confidence value were automatically fitted and calculated by log (inhibitor) vs. response-variable slop (four parameters) algorithm of nonlinear regression by software.

Structures are written as SMILES.

T2 sequence (Q06187 whole entry): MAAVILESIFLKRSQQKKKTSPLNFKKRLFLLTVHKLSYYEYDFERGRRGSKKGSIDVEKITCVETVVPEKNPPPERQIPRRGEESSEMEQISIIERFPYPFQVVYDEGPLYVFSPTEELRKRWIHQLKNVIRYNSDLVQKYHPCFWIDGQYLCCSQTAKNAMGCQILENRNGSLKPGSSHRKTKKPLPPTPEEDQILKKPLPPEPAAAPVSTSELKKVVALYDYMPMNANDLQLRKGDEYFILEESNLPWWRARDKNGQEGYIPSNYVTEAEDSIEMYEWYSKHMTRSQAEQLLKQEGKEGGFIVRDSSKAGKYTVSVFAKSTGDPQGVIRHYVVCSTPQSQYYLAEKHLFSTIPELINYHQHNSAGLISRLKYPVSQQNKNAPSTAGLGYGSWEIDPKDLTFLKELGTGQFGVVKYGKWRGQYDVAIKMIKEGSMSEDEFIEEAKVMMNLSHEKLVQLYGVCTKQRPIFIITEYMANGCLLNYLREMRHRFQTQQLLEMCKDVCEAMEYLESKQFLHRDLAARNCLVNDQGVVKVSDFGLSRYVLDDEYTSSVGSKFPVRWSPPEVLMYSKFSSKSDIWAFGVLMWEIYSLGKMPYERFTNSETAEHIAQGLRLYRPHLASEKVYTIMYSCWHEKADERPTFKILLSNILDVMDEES

In general, IC50 refers to the concentration at which inhibition is half-maximal. Turning to `CC(=O)Nc1cc(-c2nc(C(=O)Nc3cn4cc(CCC(C)(C)O)nc4cc3N3CCCCC3)co2)ccn1` [WX002], the IC50 turned out to be 125 nM in test [1], 6.6 nM against human IRAK4 and 116 nM in test [2].

As to `COc1cc(-c2nc(C(=O)Nc3cn4cc(CCC(C)(C)O)nc4cc3N3CCCCC3)co2)ccn1` [WX003], the IC50 against human BTK was 15.4 nM; at human IRAK4 it was 0.6 nM.

On to `CN(C)c1cc(-c2nc(C(=O)Nc3cn4cc(CCC(C)(C)O)nc4cc3N3CCCCC3)co2)ccn1` [WX004], for which 12 nM corresponded to half-maximal inhibition against human IRAK4 (IC50).

In the case of `CC(C)(O)CCc1cn2cc(NC(=O)c3coc(-c4ccnc5[nH]ccc45)n3)c(N3CCCCC3)cc2n1` [WX005], the IC50 against human BTK is 0.6 nM; in test [3], 325 nM; on human IRAK4 it was 1.5 nM; in test [2] it was 171 nM.

As to `CNc1cc(-c2nc(C(=O)Nc3cn4cc(CCC(C)(C)O)nc4cc3N3CCCCC3)co2)ccn1` [WX006], the IC50 was 0.7 nM against human BTK; 36 nM in test [1]; 183 nM in test [3]; 1 nM against human IRAK4; 94 nM in test [2].

Turning to `Cc1cc(-c2nc(C(=O)Nc3cn4cc(CCC(C)(C)O)nc4cc3N3CCC4(CCOC4)CC3)co2)ccn1` [WX007], the figures for the IC50 against human BTK and against human IRAK4 were 4.1 nM and 0.4 nM, respectively.

`Cc1cc(-c2nc(C(=O)Nc3cn4cc(CCC(C)(C)O)nc4cc3N3CCC4(CC3)COC4)co2)ccn1` [WX008]: the IC50 was determined as 71 nM against human BTK and 4.3 nM against human IRAK4.

Regarding `Cc1cc(-c2nc(C(=O)Nc3cn4cc(C(C)(C)O)nc4cc3N3CCC(CO)CC3)co2)ccn1` [WX010], the IC50 on human BTK is 21.2 nM; at human IRAK4, 2.1 nM.

Regarding `CS(=O)(=O)CCc1cn2cc(NC(=O)c3coc(-c4ccnc(N)c4)n3)c(N3CCCCC3)cc2n1` [WX011], the IC50 at human BTK amounted to 1.3 nM; in test [1], 6 nM; with OCI-LY3 cell line, 26 nM; in test [3] it was 28 nM; at human IRAK4, 4.7 nM.

Consider `Cc1cc(-c2nc(C(=O)Nc3cn4cc(CCS(C)(=O)=O)nc4cc3-c3ccccc3)co2)ccn1` [WX012], for which the IC50 at human BTK worked out at 14.4 nM; in test [1], 20 nM; against human IRAK4, 0.4 nM.

On to `CN(C)CCc1cn2cc(NC(=O)c3coc(-c4ccnc(N)c4)n3)c(N3CCCCC3)cc2n1` [WX014], for which the IC50 turned out to be 0.5 nM against human BTK; 18 nM in test [1]; 41 nM in the test on OCI-LY3 cell line; 40 nM in test [3]; 2.5 nM on human IRAK4.

For `Cc1cc(-c2nc(C(=O)Nc3cn4cc(CCN(C)C)nc4cc3-c3ccccc3)co2)ccn1` [WX015], the IC50 at human BTK was determined as 5.6 nM; in test [1], 36 nM; against human IRAK4, 0.4 nM; in test [2], 60 nM.

In turn, `Cc1cc(-c2nc(C(=O)Nc3cn4cc(C(C)(C)O)nc4nc3-c3ccccc3)co2)ccn1` [WX018] came in with an IC50 against human IRAK4 of 5.1 nM.

Regarding `Cc1cc(-c2nc(C(=O)Nc3cn4cc(C(C)(C)O)nc4cc3-c3ccccn3)co2)ccn1` [WX021], the IC50 is 19.8 nM against human BTK and 0.3 nM against human IRAK4.

With `COc1cc(-c2nc(C(=O)Nc3cn4cc(C(C)(C)O)nc4cc3-c3ccccc3)co2)ccn1` [WX022], the IC50 worked out at 45 nM against human BTK and 0.1 nM at human IRAK4.

Regarding `CNc1cc(-c2nc(C(=O)Nc3cn4cc(C(C)(C)O)nc4cc3-c3ccccc3)co2)ccn1` [WX023], the IC50 was determined as 1 nM against human BTK, 14 nM in test [1] and 0.1 nM against human IRAK4.

On human IRAK4, `Cc1cc(-c2nc(C(=O)Nc3cn4cc(CC(N)=O)nc4cc3-c3ccccc3)co2)ccn1` [WX025] yielded an IC50 of 0.1 nM.

Consider `Cc1nccc(-c2nc(C(=O)Nc3cn4cc(C(C)(C)O)nc4cc3-c3ccccc3)co2)c1F` [WX028], for which half-maximal inhibition at human IRAK4 (IC50) was put at 0.1 nM.

Turning to `Cc1cc(-c2nc(C(=O)Nc3cn4cc(S(C)(=O)=O)nc4cc3-c3ccccc3)co2)ccn1` [WX029], the IC50 in test [1] stood at 48 nM; at human IRAK4 it was 0.1 nM.

`Cc1cc(-c2nc(C(=O)Nc3cn4cc(N=S(C)(C)=O)nc4cc3-c3ccccc3)co2)ccn1` [WX032] had an IC50 on human IRAK4 of 0.9 nM.

Take `Cc1cc(-c2nc(C(=O)Nc3cn4cc(CC(C)(C)O)nc4cc3-c3ccccc3)co2)ccn1` [WX038]: the IC50 at human IRAK4 stood at 0.3 nM.

The values are drawn from patent US20230391776A1, “AMIDE OXAZOLE COMPOUND” (MEDSHINE DISCOVERY INC., priority 2020, published 2023).
